Measured values published in PMC4725965, “Comprehensive Structural Characterization of the Bacterial Homospermidine Synthase–an Essential Enzyme of the Polyamine Metabolism” (Scientific Reports, 2016).

Assays:
BvHSS [1] = target: T1, BvHSS (Blastochloris viridis, UniProt O32323); assay: X-ray crystallography; format: binding
T1 construct: gene hss; full-length BvHSS from pETM14, E. coli BL21 (DE3); N-terminal 6xHis-tag cut with HRV3C protease; homodimer; active site within one subunit; domains cover residues 3-477; first four amino acids not traced
T1 sequence (O32323 1-477): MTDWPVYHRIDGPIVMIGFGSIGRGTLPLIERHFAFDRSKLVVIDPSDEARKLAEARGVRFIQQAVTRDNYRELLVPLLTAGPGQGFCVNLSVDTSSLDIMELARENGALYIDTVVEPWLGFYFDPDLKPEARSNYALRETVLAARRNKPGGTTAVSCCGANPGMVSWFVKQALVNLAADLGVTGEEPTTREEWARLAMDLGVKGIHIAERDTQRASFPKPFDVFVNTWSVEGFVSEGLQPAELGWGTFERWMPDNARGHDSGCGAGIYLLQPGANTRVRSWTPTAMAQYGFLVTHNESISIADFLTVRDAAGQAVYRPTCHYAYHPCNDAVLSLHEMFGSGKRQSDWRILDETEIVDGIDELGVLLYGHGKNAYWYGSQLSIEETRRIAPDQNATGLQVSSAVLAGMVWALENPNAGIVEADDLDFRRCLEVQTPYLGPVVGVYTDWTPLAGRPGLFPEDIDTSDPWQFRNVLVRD

BvHSS [2] = target: T2, BvHSS (Blastochloris viridis, UniProt O32323, H296S); assay: X-ray crystallography; format: binding; settings: pH 4.6
T2 construct: gene hss; full-length BvHSS from pETM14, E. coli BL21 (DE3); N-terminal 6xHis-tag cut with HRV3C protease; homodimer; active site within one subunit; domains cover residues 3-477; first four amino acids not traced
T2 sequence (O32323 whole entry H296S, the tested form may be a part): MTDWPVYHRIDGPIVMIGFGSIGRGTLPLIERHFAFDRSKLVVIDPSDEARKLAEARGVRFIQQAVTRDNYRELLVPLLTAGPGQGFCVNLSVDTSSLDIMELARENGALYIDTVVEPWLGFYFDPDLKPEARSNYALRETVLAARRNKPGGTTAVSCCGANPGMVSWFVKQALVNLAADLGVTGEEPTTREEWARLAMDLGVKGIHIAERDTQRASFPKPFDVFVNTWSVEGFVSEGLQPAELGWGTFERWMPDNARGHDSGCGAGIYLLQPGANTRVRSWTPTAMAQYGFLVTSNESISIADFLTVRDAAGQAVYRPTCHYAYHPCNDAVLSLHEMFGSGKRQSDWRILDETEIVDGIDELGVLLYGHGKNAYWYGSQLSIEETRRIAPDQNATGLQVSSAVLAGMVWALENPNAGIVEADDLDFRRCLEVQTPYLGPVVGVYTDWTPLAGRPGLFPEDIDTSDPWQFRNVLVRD

BvHSS [3] = target: T3, BvHSS (Blastochloris viridis, UniProt O32323, E237Q); assay: X-ray crystallography; format: binding; settings: co-crystal with 0.2 M AGM and 0.2 M PUT; no polyamine in active site; pH 4.6
T3 construct: gene hss; full-length BvHSS from pETM14, E. coli BL21 (DE3); N-terminal 6xHis-tag cut with HRV3C protease; homodimer; active site within one subunit; domains cover residues 3-477; first four amino acids not traced
T3 sequence (O32323 whole entry E237Q, the tested form may be a part): as the sequence (O32323 whole entry H296S, the tested form may be a part) above, with E237Q, S296H counted along it

BvHSS [4] = target: T1, BvHSS; assay: X-ray crystallography; format: biochemical; settings: DAP co-crystal soaked 300 s with 0.2 M PUT; product formed in crystal; pH 4.8; active site, subunit A; transition-close state with partial Schiff base, modelled as 37Z
[5] = target: Blastochloris viridis homospermidine synthase (Blastochloris viridis) (UniProt O32323); assay: crystal structure; hanging-drop vapour diffusion at 18 °C, reservoir 100 mM sodium acetate pH 4.6-4.8; NAD+ bound, with or without polyamines; two subunits (A and B) in the asymmetric unit

NCCCN [1,3-diaminopropane]
X-ray crystallography (BvHSS [1]; co-crystal with 0.2 M DAP and 0.2 M PUT, NAD+ bound, pH 4.6, active site, second DAP at the ionic slide (pocket entrance), Table 3 misprints the PDB id as 4XQE): Two DAP molecules were found at two different positions in subunit A (PDB ID: 4XQC)

NC(=O)c1ccc[n+]([C@@H]2O[C@H](COP(=O)(O)OP(=O)(O)OC[C@H]3O[C@@H](n4cnc5c(N)ncnc54)[C@H](O)[C@@H]3O)[C@@H](O)[C@H]2O)c1 [NAD^+]
X-ray crystallography (BvHSS [1]; no polyamine, pH 4.6, non-covalently bound prosthetic group): with bound NAD^+ (Protein Data Bank [PDB] ID: 4PLP)
X-ray crystallography (BvHSS [2]; co-crystal with 0.2 M AGM): BvHSS and BvHSS variants with bound NAD^+ in complex with various polyamines
X-ray crystallography (BvHSS [3]): BvHSS and BvHSS variants with bound NAD^+ in complex with various polyamines

N=C(N)NCCCCN [agmatine]
X-ray crystallography (BvHSS [2]; co-crystal with 0.2 M AGM, NAD+ bound, active site): the variant H296S was found to bind AGM within the active site

NCCCCN [putrescine]
X-ray crystallography (BvHSS [1]; DAP co-crystal soaked 300 s with 0.2 M PUT, NAD+ bound, pH 4.8, inner binding site, subunit B, transition-close state): The active site of BvHSS with bound PUT (PDB ID: 4TVB, subunit B)
X-ray crystallography (BvHSS [2]; AGM co-crystal soaked 300 s with 0.2 M PUT, NAD+ bound, active site, partial occupancy beside AGM, enzymatically inactive variant): partial replacement of AGM with PUT (Fig. 6f)

NCCCCNCCCCN [sym-homospermidine, bis(4-aminobutyl)amine]
X-ray crystallography (BvHSS [4]): transition close state of the reduction to HSP bound in subunit A

Blastochloris viridis homospermidine synthase (from UniProt O32323 1-477) (enzyme)
stoichiometry N [5]: 2
